Data taken from PMC12459614 (European journal of medicinal chemistry, 2025).
Blank lines part the entries; values can stand above or below the compound they belong to.

How the values were obtained:
[1] = biological target: T1, hGPR17L (Homo sapiens, UniProt Q13304); assay: cAMP signaling in GLUTag cells expressing hGPR17L; assay type: cell-based; conditions: for attenuation of MDL-mediated inhibition of forskolin-stimulated cAMP: 10 μM compound, 100 nM MDL, 10 μM forskolin
[2] = biological target: T1, hGPR17L; assay: Calcium mobilization assay; assay type: cell-based; conditions: for Emax: 1321-N1, read-out: % Efficacy Avg ± SEM; for IC50 / Calcium assay IC50(μM) Avg ± SEM: reported only when efficacy ≥75%; for antagonist activity at GPR17: calcium mobilization assay, data not shown
[3] = Calcium assay IC50(μM) Avg ± SEM, Table 3
[4] = Calcium Assay IC50(μM) Avg ± SEM, Table 2

T1 sequence (Q13304 whole entry): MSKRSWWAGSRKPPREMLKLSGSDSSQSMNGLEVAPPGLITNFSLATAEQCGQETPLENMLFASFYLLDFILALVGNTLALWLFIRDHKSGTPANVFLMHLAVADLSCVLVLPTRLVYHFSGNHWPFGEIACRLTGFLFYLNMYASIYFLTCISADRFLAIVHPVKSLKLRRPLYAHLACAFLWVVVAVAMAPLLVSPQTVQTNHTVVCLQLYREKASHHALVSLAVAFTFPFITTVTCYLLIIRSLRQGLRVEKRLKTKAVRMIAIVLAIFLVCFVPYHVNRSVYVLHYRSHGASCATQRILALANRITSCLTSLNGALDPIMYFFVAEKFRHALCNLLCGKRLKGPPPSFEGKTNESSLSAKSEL

SMILES: O=C(NC1CCCc2c1[nH]c1c(Cl)cccc21)c1ccc([N+](=O)[O-])c([N+](=O)[O-])c1 (stereo not shown) [Compd 8, N-(8-Chloro-2,3,4,9-tetrahydro-1H-carbazol-1-yl)-3,4-dinitrobenzamide]
attenuation of MDL-mediated inhibition of forskolin-stimulated cAMP [1]: significantly attenuated
Emax [2]: 74.1 ± 2.16%

Emax [2]: 62.6 ± 4.84%
SMILES: Cc1ccc(C(=O)NC2CCCc3c2[nH]c2c(Cl)cccc32)cc1 (stereo not shown) [Compd 17, N-(8-chloro-2,3,4,9-tetrahydro-1H-carbazol-1-yl)-4-methylbenzamide]

Emax [2]: 44.3 ± 3.47%
SMILES: O=C(NC1CCCc2c1[nH]c1c(Cl)cccc21)c1c(F)cc([N+](=O)[O-])cc1F (stereo not shown) [Compd 12, N-(8-chloro-2,3,4,9-tetrahydro-1H-carbazol-1-yl)-2,6-difluoro-4-nitrobenzamide]

attenuation of MDL-mediated inhibition of forskolin-stimulated cAMP [1]: significantly attenuated
Emax [2]: 87.5 ± 0.92%
IC50 [2, 3]: 12.2 ± 0.5 µM
SMILES: COc1ccc(C(=O)NC2CCCc3c2[nH]c2c(C)cc(C)cc32)cc1OC (stereo not shown) [Compd 21, N-(6,8-Dimethyl-2,3,4,9-tetrahydro-1H-carbazol-1-yl)-3,4-dimethoxybenzamide]

Calcium assay IC50(μM) Avg ± SEM ([2]; Table 3): inactive
SMILES: COc1ccc(C(=O)NC2CCCc3c2[nH]c2cc(C(=O)O)ccc32)cc1OC (stereo not shown) [Compd 25, 1-(3,4-Dimethoxybenzamido)-2,3,4,9-tetrahydro-1H-carbazole-7-carboxylic acid]

Emax [2]: 68.2 ± 1.59%
SMILES: COc1cc(OC)cc(C(=O)NC2CCCc3c2[nH]c2c(C)cc(C)cc32)c1 (stereo not shown) [Compd 22, N-(6,8-Dimethyl-2,3,4,9-tetrahydro-1H-carbazol-1-yl)-3,5-dimethoxybenzamide]

Emax [2]: 101 ± 9.98%
IC50 [2, 4]: 11.6 ± 1.19 µM
SMILES: O=C(NC1CCCc2c1[nH]c1c(Cl)cccc21)c1ccc(F)c([N+](=O)[O-])c1 (stereo not shown) [Compd 13, N-(8-chloro-2,3,4,9-tetrahydro-1H-carbazol-1-yl)-4-fluoro-3-nitrobenzamide]

cAMP levels after forskolin stimulation ([1]; forskolin alone, basal 0.59 ± 0.04 nM): 4.7 ± 0.36 nM
SMILES: C=C[C@@]1(C)CC(=O)[C@]2(O)[C@@]3(C)[C@@H](O)CCC(C)(C)[C@@H]3[C@H](O)[C@H](OC(C)=O)[C@@]2(C)O1 [Forskolin, forskolin, reference compound]

antagonist activity at GPR17 [2]: do not observe antagonist activity
SMILES: CC(=O)Oc1cc2c(s1)CCN(C(C(=O)C1CC1)c1ccccc1F)C2 (stereo not shown) [prasugrel, reference compound]

Emax [2]: 81.5 ± 1.23%
IC50 [2, 4]: 10.7 ± 0.29 µM
SMILES: COc1ccc(C(=O)NC2CCCc3c2[nH]c2c(Cl)cccc32)cc1C (stereo not shown) [Compd 4, N-(8-Chloro-2,3,4,9-tetrahydro-1H-carbazol-1-yl)-4-methoxy-3-methylbenzamide]

antagonist activity at GPR17 [2]: partial antagonist activity
SMILES: CCCc1c(OCCCCc2nnn[nH]2)ccc(C(C)=O)c1O [tomelukast, reference compound]

Emax [2]: 47.4 ± 3.11%
SMILES: COc1cc(C(=O)NC2CCCc3c2[nH]c2c(Cl)cccc32)cc(OC)c1OC (stereo not shown) [Compd 2, N-(8-Chloro-2,3,4,9-tetrahydro-1H-carbazol-1-yl)-3,4,5-trimethoxybenzamide]

Emax [2]: 125 ± 4.3%
IC50 [2, 3]: 4.29 ± 0.48 µM
SMILES: COc1ccc(C(=O)NC2CCCc3c2[nH]c2c(Br)cccc32)cc1OC (stereo not shown) [Compd 19, N-(8-Bromo-2,3,4,9-tetrahydro-1H-carbazol-1-yl)-3,4-dimethoxybenzamide]

Emax [2]: 52.8 ± 2.26%
SMILES: Cc1cc(C(=O)NC2CCCc3c2[nH]c2c(Cl)cccc32)ccc1Br (stereo not shown) [Compd 10, 4-Bromo-N-(8-chloro-2,3,4,9-tetrahydro-1H-carbazol-1-yl)-3-methylbenzamide]

Emax [2]: 77.4 ± 3.46%
IC50 [2, 4]: 11.4 ± 0.59 µM
SMILES: O=C(NC1CCCc2c1[nH]c1c(Cl)cccc21)c1ccc2c(c1)OCO2 (stereo not shown) [Compd 3, N-(8-Chloro-2,3,4,9-tetrahydro-1H-carbazol-1-yl)benzo[d][1,3]dioxole-5-carboxamide]

antagonist activity at GPR17 [2]: do not observe antagonist activity
SMILES: COC(=O)[C@H](c1ccccc1Cl)N1CCc2sccc2C1 [clopidogrel, reference compound]

antagonist activity at GPR17 [2]: no antagonist activity
SMILES: CN(C)C(=O)CCSC(SCCC(=O)O)c1cccc(/C=C/c2ccc3ccc(Cl)cc3n2)c1 (stereo not shown) [MK571, reference compound]

Calcium assay IC50(μM) Avg ± SEM ([2]; Table 3): inactive
SMILES: COc1ccc(C(=O)NC2CCCc3c2[nH]c2ccc(C(=O)O)cc32)cc1OC (stereo not shown) [Compd 26, 1-(3,4-Dimethoxybenzamido)-2,3,4,9-tetrahydro-1H-carbazole-6-carboxylic acid]

Emax [2]: 29.8 ± 1.21%
SMILES: Cc1cc([N+](=O)[O-])ccc1C(=O)NC1CCCc2c1[nH]c1c(Cl)cccc21 (stereo not shown) [Compd 11, N-(8-Chloro-2,3,4,9-tetrahydro-1H-carbazol-1-yl)-2-methyl-4-nitrobenzamide]

antagonist activity at GPR17 [2]: do not observe antagonist activity
SMILES: Clc1ccccc1CN1CCc2sccc2C1 [ticlopidine, reference compound]

Emax [2]: 90.3 ± 7.04%
IC50 [2, 4]: 12.6 ± 0.89 µM
SMILES: COc1cc(C(=O)NC2CCCc3c2[nH]c2c(Cl)cccc32)ccc1F (stereo not shown) [Compd 9, N-(8-Chloro-2,3,4,9-tetrahydro-1H-carbazol-1-yl)-4-fluoro-3-methoxybenzamide]

antagonist activity at GPR17 [2]: full antagonist activity
SMILES: COc1cc(C(=O)NS(=O)(=O)c2ccccc2C)ccc1Cc1cn(C)c2ccc(NC(=O)OC3CCCC3)cc12 [zafirlukast, reference compound]

Emax [2]: 55.5 ± 1.74%
SMILES: COc1cc(OC)cc(C(=O)NC2CCCc3c2[nH]c2c(Br)cccc32)c1 (stereo not shown) [Compd 20, N-(8-bromo-2,3,4,9-tetrahydro-1H-carbazol-1-yl)-3,5-dimethoxybenzamide]

Emax [2]: 104 ± 9.32%
IC50 [2, 4]: 7.94 ± 0.49 µM
SMILES: O=C(NC1CCCc2c1[nH]c1c(Cl)cccc21)C(NS(=O)(=O)c1cccs1)c1ccccc1 (stereo not shown) [Compd 14, N-(8-Chloro-2,3,4,9-tetrahydro-1H-carbazol-1-yl)-2-phenyl-2-(thiophene-2-sulfonamido)acetamide]

Emax [2]: 38 ± 2.73%
SMILES: CS(=O)(=O)c1ccc(C(=O)NC2CCCc3c2[nH]c2c(Cl)cccc32)cc1F (stereo not shown) [Compd 6, N-(8-Chloro-2,3,4,9-tetrahydro-1H-carbazol-1-yl)-3-fluoro-4-(methylsulfonyl)benzamide]

Emax [2]: 40.4 ± 4.47%
SMILES: O=C(NC1CCCc2c1[nH]c1c(Cl)cccc21)c1ccc(Br)cc1 (stereo not shown) [Compd 16, 4-Bromo-N-(8-chloro-2,3,4,9-tetrahydro-1H-carbazol-1-yl)benzamide]

Emax [2]: 117 ± 6.08%
IC50 [2, 4]: 4.42 ± 0.34 µM
SMILES: CS(=O)(=O)c1ccc(C(=O)NC2CCCc3c2[nH]c2c(Cl)cccc32)cc1[N+](=O)[O-] (stereo not shown) [Compd 7, N-(8-Chloro-2,3,4,9-tetrahydro-1H-carbazol-1-yl)-4-(methylsulfonyl)-3-nitrobenzamide]

Emax [2]: 83.7 ± 2.39%
IC50 [2, 3]: 11.8 ± 0.5 µM
SMILES: COc1ccc(C(=O)NC2CCCc3c2[nH]c2c(C)ccc(C)c32)cc1OC (stereo not shown) [Compd 23, N-(5,8-dimethyl-2,3,4,9-tetrahydro-1H-carbazol-1-yl)-3,4-dimethoxybenzamide]

Emax [2]: 72.1 ± 4.2%
IC50 [2, 3]: 9.44 ± 1.25 µM
SMILES: COc1ccc(C(=O)NC2CCCc3c2[nH]c2ccccc32)cc1OC (stereo not shown) [Compd 18, 3,4-Dimethoxy-N-(2,3,4,9-tetrahydro-1H-carbazol-1-yl)benzamide]

Emax [2]: 50.6 ± 3.54%
SMILES: COc1ccc(C(=O)NC2CCCc3c2[nH]c2c(Cl)cccc32)cc1S(C)(=O)=O (stereo not shown) [Compd 5, N-(8-Chloro-2,3,4,9-tetrahydro-1H-carbazol-1-yl)-4-methoxy-3-(methylsulfonyl)benzamide]

Calcium assay IC50(μM) Avg ± SEM ([2]; Table 3): inactive
SMILES: COc1ccc(C(=O)NC2CCCc3c2[nH]c2c(C(=O)O)cccc32)cc1OC (stereo not shown) [Compd 24, 1-(3,4-Dimethoxybenzamido)-2,3,4,9-tetrahydro-1H-carbazole-8-carboxylic acid]
